Assay results reported in ChEMBL document CHEMBL1151687, “Search for alpha-helical propensity in the receptor-bound conformation of glucagon-like peptide-1” (Bioorg Med Chem, 2008).
Positions of bridges follow the written chain, without caps; N, C: chain ends. Residues, ends and D or L forms follow the SMILES beside them.

What was measured:
[1] = target: T1, Glucagon-like peptide 1 receptor (Homo sapiens, UniProt P43220); assay: Activation of human GLP1R expressed in HEK293 cells assessed as effect on cAMP responsive element promoter driven luciferase expression; type: functional, cell-based
T1 sequence (P43220 whole entry): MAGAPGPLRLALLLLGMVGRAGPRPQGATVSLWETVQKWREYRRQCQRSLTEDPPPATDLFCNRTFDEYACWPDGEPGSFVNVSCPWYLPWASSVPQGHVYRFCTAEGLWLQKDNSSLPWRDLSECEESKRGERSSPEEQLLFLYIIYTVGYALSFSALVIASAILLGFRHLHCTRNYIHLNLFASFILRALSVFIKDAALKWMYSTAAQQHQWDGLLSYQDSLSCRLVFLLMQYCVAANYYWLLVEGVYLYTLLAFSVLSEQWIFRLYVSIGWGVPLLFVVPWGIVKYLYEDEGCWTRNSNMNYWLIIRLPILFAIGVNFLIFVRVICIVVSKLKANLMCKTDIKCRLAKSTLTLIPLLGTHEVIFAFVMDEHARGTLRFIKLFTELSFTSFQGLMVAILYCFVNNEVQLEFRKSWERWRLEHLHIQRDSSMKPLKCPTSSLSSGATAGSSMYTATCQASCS

[2] = target: T1, Glucagon-like peptide 1 receptor; assay: Displacement of [125I]exendin(9-39) from human GLP1R expressed in HEK293 cells; type: cell-based

Compound | EC50 ([1]; hek293) [nM] | IC50 ([2]; hek293) [nM] | IC50 [2] [nM] | EC50 [1] [nM]
CC[C@H](C)[C@H](NC(=O)[C@H](Cc1ccccc1)NC(=O)[C@H](CCC(=O)O)NC(=O)[C@H](CCCCN)NC(=O)[C@H](C)NC(=O)[C@H](C)NC(=O)[C@H](CCC(N)=O)NC(=O)CNC(=O)[C@H](CCC(=O)O)NC(=O)[C@@H]1CSSC[C@H](NC(=O)[C@H](CC(=O)O)NC(=O)[C@H](CO)NC(=O)[C@@H](NC(=O)[C@H](Cc2ccccc2)NC(=O)[C@@H](NC(=O)CNC(=O)[C@H](CCC(=O)O)NC(=O)[C@H](C)NC(=O)[C@@H](N)Cc2cnc[nH]2)[C@@H](C)O)[C@@H](C)O)C(=O)N[C@@H](CO)C(=O)N[C@@H](CO)C(=O)N[C@@H](Cc2ccc(O)cc2)C(=O)N1)C(=O)N[C@@H](C)C(=O)N[C@@H](Cc1c[nH]c2ccccc12)C(=O)N[C@@H](CC(C)C)C(=O)N[C@H](C(=O)N[C@@H](CCCCN)C(=O)NCC(=O)N[C@@H](CCCNC(=N)N)C(N)=O)C(C)C (H-HAEGTFTSDCSSYCEGQAAKEFIAWLVKGR-NH2; disulfide 10-14) | 19 |  |  | 
CC[C@H](C)[C@H](NC(=O)[C@H](Cc1ccccc1)NC(=O)[C@H](CCC(=O)O)NC(=O)[C@H](CCCCN)NC(=O)[C@@H]1CCC(=O)NCCCC[C@H](NC(=O)[C@H](CC(C)C)NC(=O)[C@H](Cc2ccc(O)cc2)NC(=O)[C@H](CO)NC(=O)[C@H](CO)NC(=O)[C@@H](NC(=O)[C@H](CC(=O)O)NC(=O)[C@H](CO)NC(=O)[C@@H](NC(=O)[C@H](Cc2ccccc2)NC(=O)[C@@H](NC(=O)CNC(=O)[C@H](CCC(=O)O)NC(=O)[C@H](C)NC(=O)[C@@H](N)Cc2cnc[nH]2)[C@@H](C)O)[C@@H](C)O)C(C)C)C(=O)NCC(=O)N[C@@H](CCC(N)=O)C(=O)N[C@@H](C)C(=O)N1)C(=O)N[C@@H](C)C(=O)N[C@@H](Cc1c[nH]c2ccccc12)C(=O)N[C@@H](CC(C)C)C(=O)N[C@H](C(=O)N[C@@H](CCCCN)C(=O)NCC(=O)N[C@@H](CCCNC(=N)N)C(N)=O)C(C)C (H-HAEGTFTSDVSSYLKGQAEKEFIAWLVKGR-NH2; lactam 15-19) | 1.1 | 9200 |  | 
CC[C@H](C)[C@H](NC(=O)[C@H](CCC(=O)O)NC(=O)[C@H](CCCCN)NC(=O)[C@H](C)NC(=O)[C@H](C)NC(=O)[C@H](CCC(N)=O)NC(=O)CNC(=O)[C@H](CCC(=O)O)NC(=O)[C@H](CC(C)C)NC(=O)[C@H](Cc1ccc(O)cc1)NC(=O)[C@H](CO)NC(=O)[C@H](CO)NC(=O)[C@@H](NC(=O)[C@H](CC(=O)O)NC(=O)[C@H](CO)NC(=O)[C@@H](NC(=O)[C@H](Cc1ccccc1)NC(=O)[C@@H](NC(=O)CNC(=O)[C@H](CCC(=O)O)NC(=O)[C@H](C)NC(=O)[C@@H](N)Cc1cnc[nH]1)[C@@H](C)O)[C@@H](C)O)C(C)C)C(=O)N[C@@H](Cc1ccccc1)C(=O)N[C@@H](CCCCNC(C)=O)C(=O)N[C@@H](Cc1c[nH]c2ccccc12)C(=O)N[C@@H](CC(C)C)C(=O)N[C@H](C(=O)N[C@@H](CCC(N)=O)C(=O)NCC(=O)N[C@@H](CCCN=C(N)N)C(N)=O)C(C)C (H-HAEGTFTSDVSSYLEGQAAKEIFK(Ac)WLVQGR-NH2) | 0.0048 |  |  | 
CC[C@H](C)[C@H](NC(=O)[C@H](CCC(=O)O)NC(=O)[C@H](CCCCN)NC(=O)[C@H](C)NC(=O)[C@H](C)NC(=O)[C@H](CCC(N)=O)NC(=O)CNC(=O)[C@H](CCC(=O)O)NC(=O)[C@H](CC(C)C)NC(=O)[C@H](Cc1ccc(O)cc1)NC(=O)[C@H](CO)NC(=O)[C@H](CO)NC(=O)[C@@H](NC(=O)[C@H](CC(=O)O)NC(=O)[C@H](CO)NC(=O)[C@@H](NC(=O)[C@H](Cc1ccccc1)NC(=O)[C@@H](NC(=O)CNC(=O)[C@H](CCC(=O)O)NC(=O)[C@H](C)NC(=O)[C@@H](N)Cc1cnc[nH]1)[C@@H](C)O)[C@@H](C)O)C(C)C)C(=O)N[C@@H](Cc1ccccc1)C(=O)N[C@@H](C)C(=O)N[C@@H](Cc1c[nH]c2ccccc12)C(=O)N[C@@H](CC(C)C)C(=O)N[C@H](C(=O)N[C@@H](CCCCN)C(=O)NCC(=O)N[C@@H](CCCN=C(N)N)C(=O)O)C(C)C (H-HAEGTFTSDVSSYLEGQAAKEIFAWLVKGR-OH) | 0.0036 | 2.6 |  | 
CC[C@H](C)[C@H](NC(=O)[C@H](CCC(=O)O)NC(=O)[C@H](CCCCN)NC(=O)[C@H](CCC(N)=O)NC(=O)[C@H](C)NC(=O)[C@H](CCC(N)=O)NC(=O)CNC(=O)[C@H](CCCCNC(C)=O)NC(=O)[C@H](CC(C)C)NC(=O)[C@H](Cc1ccc(O)cc1)NC(=O)[C@H](CO)NC(=O)[C@H](CO)NC(=O)[C@@H](NC(=O)[C@H](CC(=O)O)NC(=O)[C@H](CO)NC(=O)[C@@H](NC(=O)[C@H](Cc1ccccc1)NC(=O)[C@@H](NC(=O)CNC(=O)[C@H](CCC(=O)O)NC(=O)[C@H](C)NC(=O)[C@@H](N)Cc1cnc[nH]1)[C@@H](C)O)[C@@H](C)O)C(C)C)C(=O)N[C@@H](Cc1ccccc1)C(=O)N[C@@H](C)C(=O)N[C@@H](Cc1c[nH]c2ccccc12)C(=O)N[C@@H](CC(C)C)C(=O)N[C@H](C(=O)N[C@@H](CCCCN)C(=O)NCC(=O)N[C@@H](CCCNC(=N)N)C(N)=O)C(C)C (H-HAEGTFTSDVSSYLK(Ac)GQAQKEIFAWLVKGR-NH2) |  |  | 1600 | 0.12
CC[C@H](C)[C@H](NC(=O)[C@H](Cc1ccccc1)NC(=O)[C@H](CCC(=O)O)NC(=O)[C@H](CCCCN)NC(=O)[C@H](C)NC(=O)[C@H](C)NC(=O)[C@H](CCC(N)=O)NC(=O)CNC(=O)[C@H](CCC(=O)O)NC(=O)[C@@H]1CCC(=O)NCCCC[C@H](NC(=O)[C@H](CC(=O)O)NC(=O)[C@H](CO)NC(=O)[C@@H](NC(=O)[C@H](Cc2ccccc2)NC(=O)[C@@H](NC(=O)CNC(=O)[C@H](CCC(=O)O)NC(=O)[C@H](C)NC(=O)[C@@H](N)Cc2cnc[nH]2)[C@@H](C)O)[C@@H](C)O)C(=O)N[C@@H](CO)C(=O)N[C@@H](CO)C(=O)N[C@@H](Cc2ccc(O)cc2)C(=O)N1)C(=O)N[C@H]1CCCCNC(=O)CC[C@@H](C(=O)NCC(=O)N[C@@H](CCCNC(=N)N)C(N)=O)NC(=O)[C@H](C(C)C)NC(=O)[C@H](CC(C)C)NC(=O)[C@H](Cc2c[nH]c3ccccc23)NC1=O (H-HAEGTFTSDKSSYEEGQAAKEFIKWLVEGR-NH2; lactam 10-14, 24-28) |  |  |  | 0.0033
CC[C@H](C)[C@H](NC(=O)[C@H](CCC(=O)O)NC(=O)[C@H](CCCCN)NC(=O)[C@H](C)NC(=O)[C@H](C)NC(=O)[C@H](CCC(N)=O)NC(=O)CNC(=O)[C@H](CCC(=O)O)NC(=O)[C@H](CS)NC(=O)[C@H](Cc1ccc(O)cc1)NC(=O)[C@H](CO)NC(=O)[C@H](CO)NC(=O)[C@H](CS)NC(=O)[C@H](CC(=O)O)NC(=O)[C@H](CO)NC(=O)[C@@H](NC(=O)[C@H](Cc1ccccc1)NC(=O)[C@@H](NC(=O)CNC(=O)[C@H](CCC(=O)O)NC(=O)[C@H](C)NC(=O)[C@@H](N)Cc1cnc[nH]1)[C@@H](C)O)[C@@H](C)O)C(=O)N[C@@H](Cc1ccccc1)C(=O)N[C@@H](C)C(=O)N[C@@H](Cc1c[nH]c2ccccc12)C(=O)N[C@@H](CC(C)C)C(=O)N[C@H](C(=O)N[C@@H](CCCCN)C(=O)NCC(=O)N[C@@H](CCCNC(=N)N)C(N)=O)C(C)C (H-HAEGTFTSDCSSYCEGQAAKEIFAWLVKGR-NH2) |  |  |  | 1.4
